Values after ≈ are worked out from the molar mass of the structure shown. Active and inactive are the calls of the source. The rule behind the calls is not given here.
What was measured:
[1] = molecular target: T1, Human immunodeficiency virus type 1 reverse transcriptase (Human immunodeficiency virus 1, UniProt Q72547); test: Inhibition of wild type HIV1 reverse transcriptase polymerase activity by scintillation counting assay
[2] = molecular target: T1, Human immunodeficiency virus type 1 reverse transcriptase; test: (§1) Binding affinity to wild type HIV1 reverse transcriptase by SPR assay
[3] = Solubility of compound at pH 6.5; format: physicochemical; details: buffer
Caco-2 = test: Apparent permeability across human Caco-2 cells; format: ADME, cell-based
[4] = Clearance in dog at 0.5 mg/kg, iv or 2 mg/kg, po; format: ADME, organism-based, Canis lupus familiaris; details: in vivo
[5] = Cmax in dog at 0.5 mg/kg, iv or 2 mg/kg, po; format: ADME, organism-based, Canis lupus familiaris; details: in vivo
[6] = AUC (0 to infinity) in dog at 0.5 mg/kg, iv or 2 mg/kg, po; format: ADME, organism-based, Canis lupus familiaris; details: plasma
[7] = Bioavailability in dog at 2 mg/kg, po; format: ADME, organism-based, Canis lupus familiaris; details: in vivo
[8] = system: Human immunodeficiency virus 1; test: Antiviral activity against HIV1 with reverse transcriptase Y181C mutant in MT4 cells assessed as inhibition of virus-induced cytopathic effect; format: functional, organism-based; details: Human immunodeficiency virus 1, MT4
[9] = system: Human immunodeficiency virus 1; test: Antiviral activity against HIV1 with wild type reverse transcriptase in MT4 cells assessed as inhibition of virus-induced cytopathic effect; format: functional, organism-based; details: Human immunodeficiency virus 1, MT4
[10] = system: Human immunodeficiency virus 1; test: Antiviral activity against HIV1 with reverse transcriptase […] mutant in MT4 cells assessed as inhibition of virus-induced cytopathic effect; format: functional, organism-based; details: Human immunodeficiency virus 1, MT4
[11] = system: Human immunodeficiency virus 1; test: Antiviral activity against HIV1 with reverse transcriptase K103N/Y181C mutant in MT4 cells assessed as inhibition of virus-induced cytopathic effect; format: functional, organism-based; details: Human immunodeficiency virus 1, MT4
Cytochrome P450 3A4 = Cytochrome P450 3A4 (Homo sapiens, UniProt P08684); test: Inhibition of CYP3A4; format: ADME
[12] = molecular target: Human immunodeficiency virus type 1 reverse transcriptase (Human immunodeficiency virus 1) (UniProt Q72547); test: as §1
[13] = system: Human immunodeficiency virus 1; test: Antiviral activity against HIV1 with reverse transcriptase K103N/L100I mutant in MT4 cells assessed as inhibition of virus-induced cytopathic effect; format: functional, organism-based; details: Human immunodeficiency virus 1, MT4
Liver microsomes = test: Clearance in rat liver microsome per mg of protein; format: ADME

Cytochrome P450 3A4, sequence (P08684 whole entry): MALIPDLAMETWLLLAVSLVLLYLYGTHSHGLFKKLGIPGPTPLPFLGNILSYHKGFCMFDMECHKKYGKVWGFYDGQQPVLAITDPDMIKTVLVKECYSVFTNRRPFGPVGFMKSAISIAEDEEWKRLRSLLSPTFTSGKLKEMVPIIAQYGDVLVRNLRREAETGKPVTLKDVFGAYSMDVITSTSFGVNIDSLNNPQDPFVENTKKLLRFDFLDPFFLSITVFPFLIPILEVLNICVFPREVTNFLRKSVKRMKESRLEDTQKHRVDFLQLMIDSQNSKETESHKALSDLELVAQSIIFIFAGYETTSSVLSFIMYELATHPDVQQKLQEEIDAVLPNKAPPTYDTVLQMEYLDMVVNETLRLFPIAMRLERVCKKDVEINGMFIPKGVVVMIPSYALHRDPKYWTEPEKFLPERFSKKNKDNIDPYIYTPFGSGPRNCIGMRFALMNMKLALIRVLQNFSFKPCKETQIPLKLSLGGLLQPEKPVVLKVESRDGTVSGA

| SMILES | IC50 [1] [nM] | EC50 [9] [nM] | EC50 [11] [nM] | also measured |
| --- | --- | --- | --- | --- |
| Cn1c(Cc2ccc(Br)c(Oc3cc(Cl)cc(C#N)c3)c2F)n[nH]c1=O | 5 | 2 | 9 | Kd [2]: 4 nM; solubility [3]: 2.4 µg/mL (≈ 5.48 µM); Papp (Caco-2): 15.1 10^-6 cm/s; clearance [4]: 1.5 mL/min/kg; Cmax [5]: 1300 nM; AUC(0-inf) [6]: 38.4 µM·h; bioavailability [7]: 74%; EC50 [8]: 5 nM; EC50 [10]: 1 nM |
| Cc1ccc(Cc2n[nH]c(=O)n2C)c(F)c1Oc1cc(Cl)cc(C#N)c1 |  | 2 | 26 | IC50 (Cytochrome P450 3A4): 12000 nM |
| Cc1n[nH]c(=O)n1C | > 100000 |  |  | Activity [12]: inactive |
| Cc1cc(Cc2ccc(Cl)c(Oc3cc(Cl)cc(C#N)c3)c2F)n[nH]c1=O |  | 1 | 19 | EC50 [13]: 4 nM |
| CCc1ccc(Cc2n[nH]c(=O)n2C)c(F)c1Oc1cc(Cl)cc(C#N)c1 |  | 2 | 4 |  |
| CC1OC(Cc2ccc(Cl)c(Oc3cc(Cl)cc(C#N)c3)c2F)=NNC1=O (stereo not given) | 13 | 5 | 34 | IC50 (Cytochrome P450 3A4): 270 nM |
| Cn1c(Cc2ccc(Br)cc2)n[nH]c1=O | > 100000 |  |  | Kd [2]: 388000 nM |
| Cn1c(Cc2ccc(Cl)c(Oc3cc(Cl)cc(C#N)c3)c2F)n[nH]c1=O | 11 | 8 | 39 |  |
| Cn1c(Cc2ccc(C3CC3)c(Oc3cc(Cl)cc(C#N)c3)c2F)n[nH]c1=O |  | 2 | 11 |  |
| C[C@H]1NC(Cc2ccc(Cl)c(Oc3cc(Cl)cc(C#N)c3)c2F)=NNC1=O | 11 | 8 | 72 | clearance (Liver microsomes): 130 µL/min/mg |

Second part, led by results:

| IC50 [1] [nM] | SMILES | EC50 [9] [nM] | EC50 [11] [nM] | also measured |
| --- | --- | --- | --- | --- |
| 230 | CN(C)c1cc(Cc2ccc(Cl)c(Oc3cccc(Br)c3)c2)n[nH]c1=O |  |  |  |
| 690 | Cn1c(Cc2ccc(Cl)c(Oc3cccc(Br)c3)c2)n[nH]c1=O |  |  |  |
| 130 | Cc1cc(Cc2ccc(Cl)c(Oc3cccc(Br)c3)c2)n[nH]c1=O |  |  |  |
| 150 | CN1CC(Cc2ccc(Cl)c(Oc3cccc(Br)c3)c2)=NNC1=O |  |  |  |
| 34000 | COc1c(Br)ccc(Cc2n[nH]c(=O)n2C)c1F |  |  | Kd [2]: 4000 nM |
| > 10000 | Cn1c(Cc2ccc(Br)cc2F)n[nH]c1=O |  |  | Kd [2]: 102000 nM |
| 530 | O=c1[nH]nc(Cc2ccc(Cl)c(Oc3cccc(Br)c3)c2)s1 |  |  |  |
| > 100000 | Cn1c(Cc2ccccc2)n[nH]c1=O |  |  | Activity [12]: inactive |
| 50 | CC1OC(Cc2ccc(Cl)c(Oc3cccc(Br)c3)c2)=NNC1=O (stereo not given) |  |  |  |
| 17 | C[C@H]1CC(Cc2ccc(Cl)c(Oc3cc(Cl)cc(C#N)c3)c2F)=NNC1=O | 32 |  |  |
| 18000 | Cn1c(Cc2cccc(Oc3ccccc3)c2)n[nH]c1=O |  |  | Kd [2]: 3000 nM |
| 330 | Cc1nc(Cc2ccc(Cl)c(Oc3cccc(Br)c3)c2)n[nH]c1=O |  |  |  |
| 5800 | O=c1[nH]nc(Cc2ccc(Cl)c(Oc3cccc(Br)c3)c2)o1 |  |  |  |
